From US10029986B2, “Alkynyl pyridine-substituted amide compound and pesticide” (NISSAN CHEMICAL INDUSTRIES, LTD., priority 2014, dated 2018)
One block for each molecule: values may come before it.

Assays:
[1] = test system: Phaeosphaeria nodorum (Synonym: Septoria nodorum); test: Test on the preventive effect against wheat glume blotch; assay type: in vivo; settings: Parastagonospora nodorum, 144 h; test solution A 500 ppm, 5 ml per pot, wheat 1.3-leaf stage, 2 days inoculation chamber then 6 days at 20° C.
Experimental: (§1) Compounds of the present invention were dissolved in a solvent for emulsion (a mixture of Sorpol (registered trademark) 3005XL (manufactured by Toho Chemical Industry Co., Ltd.): N-methylpyrrolidone: Solvesso (registered trademark) 200 (manufactured by ExxonMobil Chemical) in a ratio of 1:5:2) to prepare 20 wt % emulsifiable concentrates. Then, distilled water was added to dilute the emulsifiable concentrates to the prescribed concentration (500 ppm), and the obtained solutions were used in the following the Test Examples 1 to 8. Wheat (varieties: Haruyutaka) was seeded in 90 cm^3 plastic pot, and at 1.3-leaf stage, 5 ml per pot of test solution A of the compounds of the present invention was applied. One day after treatment, a suspension of conidium of Phaeosphaeria nodorum (Synonym: Septoria nodorum) was sprayed to the wheat, and the pot was left in the inoculation chamber at 20° C. under humidity of 100% RH for 2 days. Then, the pot was placed in an air-conditioned greenhouse (20° C.) for 6 days. The proportion of the formed lesion in the inoculated leaves were measured to calculate the control value in accordance with the same formula as in the Test Example 1. The test was carried out in duplicate.

[2] = test system: Erysiphe polygoni (synonym: Erysiphe betae); test: Test on the preventive effect against cucumber powdery mildew; assay type: in vivo; settings: 216 h, test solution A 500 ppm, 5 ml per pot sprayed, cucumber cotyledon stage, 9 days after inoculation
Experimental: Compounds of the present invention were dissolved in a solvent for emulsion (a mixture of Sorpol (registered trademark) 3005XL (manufactured by Toho Chemical Industry Co., Ltd.): N-methylpyrrolidone: Solvesso (registered trademark) 200 (manufactured by ExxonMobil Chemical) in a ratio of 1:5:2) to prepare 20 wt % emulsifiable concentrates. Then, distilled water was added to dilute the emulsifiable concentrates to the prescribed concentration (500 ppm), and the obtained solutions were used in the following the Test Examples 1 to 8. Cucumber (varieties: Sagami Hanjiro) was seeded in 90 cm^3 plastic pot, and at the cotyledon stage, 5 ml per pot of test solution A of the compounds of the present invention was sprayed. After drying in air, the pot was placed in an air-conditioned greenhouse (20° C.), and a suspension of conidium of Erysiphe polygoni (synonym: Erysiphe betae) was sprayed. After the pot were replaced at the same temperature for 9 days, the proportion of the formed lesion in the inoculated leaves were counted to calculate the control value in accordance with the following formula. The test was carried out in duplicate. Control value=[1−(lesion area ratio in treated plot/lesion are a ratio in non-treated plot)]×100

[3] = test system: Southern root-knot nematode (Meloidogyne incoqnita); test: Insecticidal test against Southern root-knot nematode (eggs, 96 well plate); assay type: in vivo; settings: 96 h, test solution B 100 ppm, 10 μl per well, 25° C. dark, 4 days after treatment, read-out: efficacy (unhatched eggs + inactive larvae relative to non-treated)
Experimental: Compounds of the present invention were dissolved in dimethyl sulfoxide to prepare 1 wt % solutions. Then, distilled water was added to dilute the solutions to the prescribed concentration (100 ppm), and the obtained solutions were used in the following the Test Examples 9 to 12. 60 μl of a potato dextrose 1% agar medium was added to each well of a 96 well plate, and 30 μl of sterilized water containing eggs of Southern root-knot nematode (Meloidogyne incoqnita) (10 eggs/3 μl) was added to each well. Further, 10 μl per well of test solution B of the compounds of the present invention was added, and the plate was left at rest at 25° C. under dark conditions.

[4] = test system: Puccinia recondita; test: Test on the preventive effect against wheat leaf rust; assay type: in vivo; settings: 216 h, test solution A 500 ppm, 5 ml per pot, wheat 1.3-leaf stage, 1 day inoculation chamber then 8 days at 20° C.
Experimental: as §1, with “Norin 61)” for “Haruyutaka)”, “spores” for “conidium”, “Puccinia recondita” for “Phaeosphaeria nodorum (Synonym: Septoria nodorum)”, “1 day. Thereafter,” for “2 days. Then,”, “8” for “6”, “counted” for “measured”

melting point: 90 to 92 °C
SMILES: CC(C)(C)C#Cc1cnc(CCNC(=O)c2ccccc2C(F)(F)F)c(Cl)c1 [1-003, N-[2-[3-chloro-5-(3,3-dimethyl-1-butynyl)pyridin-2-yl]ethyl]-2-(trifluoromethyl)benzamide]
pest or weed control at 500 µg/mL [1]: ≥ 70% | pest or weed control at 500 µg/mL [2]: ≥ 70% | pest or weed control at 100 µg/mL [3]: ≥ 50%

SMILES: CC(CNC(=O)c1ccccc1C(F)(F)F)c1ncc(C#CC2CC2)cc1Cl (stereo not drawn) [1-007, N-[2-[3-chloro-5-(cyclopropylethynyl)pyridin-2-yl]propyl]-2-(trifluoromethyl)benzamide]
pest or weed control at 500 µg/mL [1]: ≥ 70% | pest or weed control at 500 µg/mL [2]: ≥ 70% | pest or weed control at 100 µg/mL [3]: ≥ 50%

SMILES: CC(C)(CNC(=O)c1ccccc1C(F)(F)F)c1ncc(C#CC2CC2)cc1Cl [1-008]
pest or weed control at 500 µg/mL [1]: ≥ 70% | pest or weed control at 500 µg/mL [2]: ≥ 70% | pest or weed control at 100 µg/mL [3]: ≥ 50%

SMILES: O=C(NCC(c1ncc(C#CC2CC2)cc1Cl)C1CC1)c1ccccc1C(F)(F)F (stereo not drawn) [1-009]
pest or weed control at 500 µg/mL [1]: ≥ 70% | pest or weed control at 500 µg/mL [2]: ≥ 70% | pest or weed control at 100 µg/mL [3]: ≥ 50%

melting point: 85 to 90 °C
SMILES: C=C(CNC(=O)c1ccccc1C(F)(F)F)c1ncc(C#CC)cc1Cl [1-012, N-[2-[3-chloro-5-(1-propynyl)pyridin-2-yl]-2-propenyl]-2-(trifluoromethyl)benzamide]
pest or weed control at 500 µg/mL [1]: ≥ 70% | pest or weed control at 500 µg/mL [2]: ≥ 70% | pest or weed control at 100 µg/mL [3]: ≥ 50%

SMILES: CSC(CNC(=O)c1ccccc1C(F)(F)F)c1ncc(C#CC2CC2)cc1Cl (stereo not drawn) [1-021]
pest or weed control at 500 µg/mL [1]: ≥ 70% | pest or weed control at 500 µg/mL [2]: ≥ 70% | pest or weed control at 100 µg/mL [3]: ≥ 50%

SMILES: COC(c1ncc(C#CC2CC2)cc1Cl)C(C)NC(=O)c1ccccc1C(F)(F)F (stereo not drawn) [1-024]
pest or weed control at 500 µg/mL [1]: ≥ 70% | pest or weed control at 500 µg/mL [2]: ≥ 70% | pest or weed control at 100 µg/mL [3]: ≥ 50% | pest or weed control at 500 µg/mL [4]: ≥ 70%

melting point: 36 to 38 °C
SMILES: COC(c1ncc(C#CC(C)(C)C)cc1Cl)C(C)NC(=O)c1ccccc1C(F)(F)F (stereo not drawn) [1-025]
pest or weed control at 500 µg/mL [1]: ≥ 70% | pest or weed control at 500 µg/mL [2]: ≥ 70% | pest or weed control at 100 µg/mL [3]: ≥ 50% | pest or weed control at 500 µg/mL [4]: ≥ 70%

SMILES: CC(NC(=O)c1ccccc1C(F)(F)F)C(OCc1ccccc1)c1ncc(C#CC2CC2)cc1Cl (stereo not drawn) [1-031, N-[2-benzyloxy-2-[3-chloro-5-(cyclopropylethynyl)pyridin-2-yl]-1-methylethyl]-2-(trifluoromethyl)benzamide]
pest or weed control at 500 µg/mL [1]: ≥ 70% | pest or weed control at 500 µg/mL [2]: ≥ 70% | pest or weed control at 100 µg/mL [3]: ≥ 50% | pest or weed control at 500 µg/mL [4]: ≥ 70%

melting point: 114 to 117 °C
SMILES: O=C(NCCc1ncc(C#CC2CC2)cc1Cl)c1cccnc1C(F)F [3-001, N-[2-[3-chloro-5-(cyclopropylethynyl)pyridin-2-yl]ethyl]-2-(difluoromethyl)nicotinamide]
pest or weed control at 500 µg/mL [1]: ≥ 70% | pest or weed control at 500 µg/mL [2]: ≥ 70% | pest or weed control at 100 µg/mL [3]: ≥ 50% | pest or weed control at 500 µg/mL [4]: ≥ 70%

SMILES: CC(CNC(=O)c1cccnc1Cl)c1ncc(C#CC2CC2)cc1Cl (stereo not drawn) [3-005]
pest or weed control at 500 µg/mL [1]: ≥ 70% | pest or weed control at 500 µg/mL [2]: ≥ 70% | pest or weed control at 100 µg/mL [3]: ≥ 50%

SMILES: CC(C)(CNC(=O)c1cccnc1C(F)F)c1ncc(C#CC2CC2)cc1Cl [3-007, N-[2-[3-chloro-5-(cyclopropylethynyl)pyridin-2-yl]-2-methylpropyl]-2-(difluoromethyl)nicotinamide]
pest or weed control at 500 µg/mL [1]: ≥ 70% | pest or weed control at 500 µg/mL [2]: ≥ 70% | pest or weed control at 100 µg/mL [3]: ≥ 50%

SMILES: COC(c1ncc(C#CC2CC2)cc1Cl)C(C)NC(=O)c1cccnc1C(F)F (stereo not drawn) [3-021]
pest or weed control at 500 µg/mL [1]: ≥ 70% | pest or weed control at 500 µg/mL [2]: ≥ 70% | pest or weed control at 100 µg/mL [3]: ≥ 50% | pest or weed control at 500 µg/mL [4]: ≥ 70%

SMILES: COC(c1ncc(C#CC2CC2)cc1Cl)C(C)NC(=O)c1nccnc1C(F)(F)F (stereo not drawn) [4-004]
pest or weed control at 500 µg/mL [1]: ≥ 70% | pest or weed control at 500 µg/mL [2]: ≥ 70% | pest or weed control at 500 µg/mL [4]: ≥ 70%

melting point: 96 to 98 °C
SMILES: Cn1cc(C(=O)NCCc2ncc(C#CC3CC3)cc2Cl)c(C(F)F)n1 [8-001]
pest or weed control at 500 µg/mL [1]: ≥ 70% | pest or weed control at 500 µg/mL [2]: ≥ 70% | pest or weed control at 100 µg/mL [3]: ≥ 50% | pest or weed control at 500 µg/mL [4]: ≥ 70%

SMILES: Cn1cc(C(=O)NCCc2ncc(C#CC(C)(C)C)cc2Cl)c(C(F)F)n1 [8-002]
pest or weed control at 500 µg/mL [1]: ≥ 70% | pest or weed control at 500 µg/mL [2]: ≥ 70% | pest or weed control at 500 µg/mL [4]: ≥ 70%

SMILES: CC(CNC(=O)c1cn(C)nc1C(F)F)c1ncc(C#CC2CC2)cc1Cl (stereo not drawn) [8-007]
pest or weed control at 500 µg/mL [1]: ≥ 70% | pest or weed control at 500 µg/mL [2]: ≥ 70% | pest or weed control at 100 µg/mL [3]: ≥ 50% | pest or weed control at 500 µg/mL [4]: ≥ 70%

SMILES: Cn1cc(C(=O)NCC(C)(C)c2ncc(C#CC3CC3)cc2Cl)c(C(F)F)n1 [8-008]
pest or weed control at 500 µg/mL [1]: ≥ 70% | pest or weed control at 500 µg/mL [2]: ≥ 70% | pest or weed control at 100 µg/mL [3]: ≥ 50%

melting point: 66 to 70 °C
SMILES: C=C(CNC(=O)c1cn(C)nc1C(F)F)c1ncc(C#CC2CC2)cc1Cl [8-011, N-[2-[3-chloro-5-(cyclopropylethynyl)pyridin-2-yl]-2-propenyl]-3-difluoromethyl-1-methyl-1H-pyrazole-4-carboxamide]
pest or weed control at 500 µg/mL [1]: ≥ 70% | pest or weed control at 500 µg/mL [2]: ≥ 70% | pest or weed control at 100 µg/mL [3]: ≥ 50% | pest or weed control at 500 µg/mL [4]: ≥ 70%

SMILES: Cn1cc(C(=O)NCC2(c3ncc(C#CC4CC4)cc3Cl)CC2)c(C(F)F)n1 [8-018, N-[[1-[3-chloro-5-(cyclopropylethynyl)pyridin-2-yl]cyclopropyl]methyl]-3-difluoromethyl-1-methyl-1H-pyrazole-4-carboxamide]
pest or weed control at 500 µg/mL [1]: ≥ 70% | pest or weed control at 500 µg/mL [2]: ≥ 70% | pest or weed control at 100 µg/mL [3]: ≥ 50%

melting point: 110 to 111 °C
SMILES: COC(CNC(=O)c1cn(C)nc1C(F)F)c1ncc(C#CC2CC2)cc1Cl (stereo not drawn) [8-019]
pest or weed control at 500 µg/mL [1]: ≥ 70% | pest or weed control at 500 µg/mL [2]: ≥ 70% | pest or weed control at 100 µg/mL [3]: ≥ 50%

SMILES: COC(=O)C(CNC(=O)c1cn(C)nc1C(F)F)c1ncc(C#CC2CC2)cc1Cl (stereo not drawn) [8-022, 2-[3-chloro-5-(cyclopropylethynyl)pyridin-2-yl]-3-(3-difluoromethyl-1-methyl-1H-pyrazole-4-carboxamide)propionic acid methyl ester]
pest or weed control at 500 µg/mL [1]: ≥ 70% | pest or weed control at 500 µg/mL [2]: ≥ 70% | pest or weed control at 500 µg/mL [4]: ≥ 70%

SMILES: COC(c1ncc(C#CC2CC2)cc1Cl)C(C)NC(=O)c1cn(C)nc1C(F)F (stereo not drawn) [8-028, N-[2-[3-chloro-5-(cyclopropylethynyl)pyridin-2-yl]-2-methoxy-1-methylethyl]-3-difluoromethyl-1-methyl-1H-pyrazole-4-carboxamide]
pest or weed control at 500 µg/mL [1]: ≥ 70% | pest or weed control at 500 µg/mL [2]: ≥ 70% | pest or weed control at 100 µg/mL [3]: ≥ 50%

SMILES: COC(c1ncc(C#CC2CC2)cc1Cl)C(C)NC(=O)c1sc(C)nc1C(F)F (stereo not drawn) [9-006a]
pest or weed control at 500 µg/mL [1]: ≥ 70% | pest or weed control at 500 µg/mL [2]: ≥ 70% | pest or weed control at 100 µg/mL [3]: ≥ 50%
